Test results published in US10112933B2, “Methods and compositions for treatment of fibrosis” (Baylor College of Medicine, priority 2013, dated 2018).

Legend:
skin fibrosis = test: Subcutaneous bleomycin mouse model of skin fibrosis; assay type: in vivo; details: intraperitoneal treatment days 14-28 of the 4 week model
Procedure: FIG. 20 illustrates an exemplary study design using a subcutaneous (SQ) bleomycin model for skin fibrosis. In a basic model, bleomycin is administered to wild type mice (C57/Bl6) via subcutaneous injection 5 days a week for a total of 4 weeks. PBS is used as a control for the bleomycin. Fibrosis is assessed in the biopsied skin on day 28. Fibrosis is assessed using histology (hematoxylin and eosin stain), where the dermal thickness is quantified as the average linear distance from the dermis-epidermis junction to the subQ muscle layer. Masson's trichrome staining is also performed to stain collagen blue. Immunohistochemistry is performed for alpha-smooth muscle actin, the marker of the myofibroblasts (cell that makes collagen during the process of fibrosis). Future endpoints are assessed including collagen content. To illustrate that STAT3 inhibitor is a useful therapy at least for dermal fibrosis, an example of a STAT3 inhibitor (C188-9) was given via the intraperitoneal route daily, starting in week 3 of the bleomycin model. DMSO was used as a control for the STAT3 inhibitor.

[1] = tested on: alveolar epithelial cells (MLE-12 and primary AEC); test: TGF-beta and IL-6/sIL-6R-alpha induced EMT of alveolar epithelial cells; assay type: cell-based
Procedure: (§1) The role of STAT3 in EMT and myofibroblast differentiation was determined by using […]-9 in tissue culture experiments with alveolar epithelial cells (AEC; MLE-12 and primary AEC) and murine lung fibroblasts. […] […]-9 prevented TGF-beta and IL-6/sIL-6R-alpha induced EMT of AEC assessed by Col1a, alpha-SMA, Twist, and Snail mRNA levels and reduced myofibroblast differentiation as assessed by Col1a and alpha-SMA mRNA levels.

murine lung fibroblasts = test: Myofibroblast differentiation of lung fibroblasts; assay type: cell-based
Procedure: as §1

Compound: COc1ccc(S(=O)(=O)Nc2cc(-c3c(O)ccc4ccccc34)c(O)c3ccccc23)cc1 [C188-9, N-(1′,2-dihydroxy-1,2′-binaphthalen-4′-yl)-4-methoxybenzenesulfonamide]
- bleomycin-induced increase of dermal fibrotic gene expression (Acta2, Col1a1, Col1a2 transcripts), RT-PCR (skin fibrosis): blunted
- TGF-beta and IL-6/sIL-6R-alpha induced EMT of AEC (Col1a, alpha-SMA, Twist, Snail mRNA levels) [1]: prevented
- myofibroblast differentiation (Col1a and alpha-SMA mRNA levels) (murine lung fibroblasts): reduced
